# Assays:
# Assay in all cases: KINOMEscan competition binding
# Conditions in all cases: compound 1.0 µM
# GRK4 (human) = GRK4 (human) (UniProt P32298)
# RIOK3 (human) = RIOK3 (human) (UniProt O14730)
# CSNK1D (human) = CSNK1D (human) (UniProt P48730)
# RPS6KA2 KD2 (human) = RPS6KA2 KD2 (human) (UniProt Q15349)
# IGF1R (human) = IGF1R (human) (UniProt P08069)
# CDK19 (human) = CDK19 (human) (UniProt Q9BWU1)
# PIP5K1A (human) = PIP5K1A (human) (UniProt Q99755)
# STK36 (human) = STK36 (human) (UniProt Q9NRP7)
# TLK1 (human) = TLK1 (human) (UniProt Q9UKI8)
# BLK (human) = BLK (human) (UniProt P51451)
# GSK3B (human) = GSK3B (human) (UniProt P49841)
# [1] = tested on: FLT3 (human), P36888 [K663Q]
# BMX (human) = BMX (human) (UniProt P51813)
# BMP2K (human) = BMP2K (human) (UniProt Q9NSY1)
# [2] = tested on: MET (human), P08581 [Y1235D]
# FLT4 (human) = FLT4 (human) (UniProt P35916)
# NTRK3 (human) = NTRK3 (human) (UniProt Q16288)
# CAMK1G (human) = CAMK1G (human) (UniProt Q96NX5)
# ALK (human) = ALK (human) (UniProt Q9UM73)
# ALK (human), sequence (Q9UM73 whole entry, looked up): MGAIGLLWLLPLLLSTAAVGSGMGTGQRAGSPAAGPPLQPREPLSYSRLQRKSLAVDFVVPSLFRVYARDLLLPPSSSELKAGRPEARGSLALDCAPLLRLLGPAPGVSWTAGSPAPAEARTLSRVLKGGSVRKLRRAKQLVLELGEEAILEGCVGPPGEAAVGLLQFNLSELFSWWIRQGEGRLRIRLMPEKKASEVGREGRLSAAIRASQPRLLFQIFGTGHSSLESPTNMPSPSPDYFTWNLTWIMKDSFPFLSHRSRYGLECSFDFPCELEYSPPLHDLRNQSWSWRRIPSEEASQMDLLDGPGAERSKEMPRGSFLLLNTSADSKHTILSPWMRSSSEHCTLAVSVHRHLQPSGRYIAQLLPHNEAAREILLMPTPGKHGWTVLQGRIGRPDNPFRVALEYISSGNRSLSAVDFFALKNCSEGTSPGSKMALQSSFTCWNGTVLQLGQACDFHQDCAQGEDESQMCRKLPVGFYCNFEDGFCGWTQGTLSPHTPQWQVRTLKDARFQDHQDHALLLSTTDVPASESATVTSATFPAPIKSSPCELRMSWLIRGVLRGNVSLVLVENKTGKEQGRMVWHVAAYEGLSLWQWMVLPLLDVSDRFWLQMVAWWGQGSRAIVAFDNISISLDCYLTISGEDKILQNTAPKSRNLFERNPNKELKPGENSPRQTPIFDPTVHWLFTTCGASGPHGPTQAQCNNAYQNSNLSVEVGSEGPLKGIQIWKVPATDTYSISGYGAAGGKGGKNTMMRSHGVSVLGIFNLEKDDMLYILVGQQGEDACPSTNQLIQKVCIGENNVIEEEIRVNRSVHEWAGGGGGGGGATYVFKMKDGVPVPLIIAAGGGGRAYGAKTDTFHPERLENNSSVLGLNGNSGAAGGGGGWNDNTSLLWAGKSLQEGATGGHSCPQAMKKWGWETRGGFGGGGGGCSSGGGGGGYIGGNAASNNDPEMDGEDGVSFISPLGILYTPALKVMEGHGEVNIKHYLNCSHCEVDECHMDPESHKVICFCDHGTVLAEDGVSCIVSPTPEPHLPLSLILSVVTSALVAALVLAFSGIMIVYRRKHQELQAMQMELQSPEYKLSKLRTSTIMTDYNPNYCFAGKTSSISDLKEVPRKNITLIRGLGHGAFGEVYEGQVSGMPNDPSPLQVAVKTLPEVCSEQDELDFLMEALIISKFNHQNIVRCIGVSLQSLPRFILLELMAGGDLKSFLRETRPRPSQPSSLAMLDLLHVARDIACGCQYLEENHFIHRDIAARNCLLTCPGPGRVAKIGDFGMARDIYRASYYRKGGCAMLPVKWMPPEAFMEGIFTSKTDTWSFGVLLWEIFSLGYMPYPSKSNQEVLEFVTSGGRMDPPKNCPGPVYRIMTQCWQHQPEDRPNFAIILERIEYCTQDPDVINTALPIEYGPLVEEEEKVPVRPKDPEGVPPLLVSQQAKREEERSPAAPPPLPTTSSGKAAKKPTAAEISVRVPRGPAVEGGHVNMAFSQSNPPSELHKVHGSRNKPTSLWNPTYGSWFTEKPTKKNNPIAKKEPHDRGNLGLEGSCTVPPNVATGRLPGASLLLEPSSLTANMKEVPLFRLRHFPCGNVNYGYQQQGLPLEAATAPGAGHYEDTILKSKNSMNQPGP
# AXL (human) = AXL (human) (UniProt P30530)
# PAK4 (human) = PAK4 (human) (UniProt O96013)
# OXSR1 (human) = OXSR1 (human) (UniProt O95747)
# AURKA (human) = AURKA (human) (UniProt O14965)
# TBK1 (human) = TBK1 (human) (UniProt Q9UHD2)
# TBK1 (human), sequence (Q9UHD2 whole entry, looked up): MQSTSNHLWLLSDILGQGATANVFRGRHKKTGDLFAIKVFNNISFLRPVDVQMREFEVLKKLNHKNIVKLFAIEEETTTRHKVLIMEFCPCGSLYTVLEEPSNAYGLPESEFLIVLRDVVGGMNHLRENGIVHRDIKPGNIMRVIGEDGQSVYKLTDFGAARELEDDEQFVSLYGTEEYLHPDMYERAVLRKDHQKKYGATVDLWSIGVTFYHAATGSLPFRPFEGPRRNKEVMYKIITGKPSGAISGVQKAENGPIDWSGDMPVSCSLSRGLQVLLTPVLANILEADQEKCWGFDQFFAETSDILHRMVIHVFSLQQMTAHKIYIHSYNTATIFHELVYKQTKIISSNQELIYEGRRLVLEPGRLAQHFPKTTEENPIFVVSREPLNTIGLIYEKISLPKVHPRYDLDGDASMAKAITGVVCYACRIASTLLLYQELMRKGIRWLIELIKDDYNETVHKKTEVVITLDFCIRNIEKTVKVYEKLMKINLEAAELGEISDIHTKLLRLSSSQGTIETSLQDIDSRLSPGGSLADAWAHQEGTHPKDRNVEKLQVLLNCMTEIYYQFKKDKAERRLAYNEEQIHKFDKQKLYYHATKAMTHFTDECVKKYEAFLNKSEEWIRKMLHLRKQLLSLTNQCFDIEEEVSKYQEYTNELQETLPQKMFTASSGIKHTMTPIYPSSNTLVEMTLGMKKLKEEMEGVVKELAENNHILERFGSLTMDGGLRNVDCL
# PTK6 (human) = PTK6 (human) (UniProt Q13882)
# MAP2K2 (human) = MAP2K2 (human) (UniProt P36507)
# MAP2K2 (human), sequence (P36507 whole entry, looked up): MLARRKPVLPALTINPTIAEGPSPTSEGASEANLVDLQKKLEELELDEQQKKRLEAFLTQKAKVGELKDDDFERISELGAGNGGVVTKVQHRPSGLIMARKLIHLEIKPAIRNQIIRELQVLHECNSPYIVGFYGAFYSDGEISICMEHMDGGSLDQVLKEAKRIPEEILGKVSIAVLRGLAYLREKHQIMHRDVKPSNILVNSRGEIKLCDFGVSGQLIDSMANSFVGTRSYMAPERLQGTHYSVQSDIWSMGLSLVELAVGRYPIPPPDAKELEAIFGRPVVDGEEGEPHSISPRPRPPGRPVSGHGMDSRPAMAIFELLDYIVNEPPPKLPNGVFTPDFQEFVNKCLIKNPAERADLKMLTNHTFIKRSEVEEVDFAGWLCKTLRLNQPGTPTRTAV
# MAPK4 (human) = MAPK4 (human) (UniProt P31152)
# IRAK1 (human) = IRAK1 (human) (UniProt P51617)
# PRPF4B (human) = PRPF4B (human) (UniProt Q13523)
# DAPK2 (human) = DAPK2 (human) (UniProt Q9UIK4)
# [3] = tested on: FLT3 (human), P36888 [N841I]
# PAK7 (human) = PAK7 (human) (UniProt Q9P286)
# PHKG1 (human) = PHKG1 (human) (UniProt Q16816)
# EPHB1 (human) = EPHB1 (human) (UniProt P54762)
# EPHB1 (human), sequence (P54762 whole entry, looked up): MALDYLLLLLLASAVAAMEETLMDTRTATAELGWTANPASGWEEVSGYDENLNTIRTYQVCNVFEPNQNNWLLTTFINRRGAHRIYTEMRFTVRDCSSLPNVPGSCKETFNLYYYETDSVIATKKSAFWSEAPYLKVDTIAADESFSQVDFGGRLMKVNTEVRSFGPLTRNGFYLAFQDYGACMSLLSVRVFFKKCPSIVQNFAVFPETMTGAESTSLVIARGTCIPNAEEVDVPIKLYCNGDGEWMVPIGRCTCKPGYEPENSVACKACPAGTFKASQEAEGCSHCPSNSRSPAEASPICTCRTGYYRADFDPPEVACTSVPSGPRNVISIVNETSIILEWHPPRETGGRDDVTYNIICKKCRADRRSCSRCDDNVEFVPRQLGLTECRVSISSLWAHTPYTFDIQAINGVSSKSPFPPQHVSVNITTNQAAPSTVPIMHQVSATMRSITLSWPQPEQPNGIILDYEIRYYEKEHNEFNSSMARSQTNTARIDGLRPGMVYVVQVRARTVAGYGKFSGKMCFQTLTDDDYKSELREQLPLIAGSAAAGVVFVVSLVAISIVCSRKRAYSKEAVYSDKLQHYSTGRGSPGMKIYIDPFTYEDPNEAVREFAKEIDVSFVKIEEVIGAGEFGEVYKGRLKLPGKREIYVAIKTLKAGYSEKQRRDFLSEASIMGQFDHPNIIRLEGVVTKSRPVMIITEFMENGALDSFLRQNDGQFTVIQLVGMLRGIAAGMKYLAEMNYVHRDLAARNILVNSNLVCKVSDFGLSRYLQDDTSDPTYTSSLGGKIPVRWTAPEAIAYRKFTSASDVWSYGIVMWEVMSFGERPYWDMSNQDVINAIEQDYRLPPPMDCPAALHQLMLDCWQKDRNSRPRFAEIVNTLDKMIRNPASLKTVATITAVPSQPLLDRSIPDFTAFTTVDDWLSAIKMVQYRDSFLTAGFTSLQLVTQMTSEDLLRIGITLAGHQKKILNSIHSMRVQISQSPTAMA
# RPS6KA1 KD2 (human) = RPS6KA1 KD2 (human) (UniProt Q15418)
# GRK7 (human) = GRK7 (human) (UniProt Q8WTQ7)
# GRK7 (human), sequence (Q8WTQ7 whole entry, looked up): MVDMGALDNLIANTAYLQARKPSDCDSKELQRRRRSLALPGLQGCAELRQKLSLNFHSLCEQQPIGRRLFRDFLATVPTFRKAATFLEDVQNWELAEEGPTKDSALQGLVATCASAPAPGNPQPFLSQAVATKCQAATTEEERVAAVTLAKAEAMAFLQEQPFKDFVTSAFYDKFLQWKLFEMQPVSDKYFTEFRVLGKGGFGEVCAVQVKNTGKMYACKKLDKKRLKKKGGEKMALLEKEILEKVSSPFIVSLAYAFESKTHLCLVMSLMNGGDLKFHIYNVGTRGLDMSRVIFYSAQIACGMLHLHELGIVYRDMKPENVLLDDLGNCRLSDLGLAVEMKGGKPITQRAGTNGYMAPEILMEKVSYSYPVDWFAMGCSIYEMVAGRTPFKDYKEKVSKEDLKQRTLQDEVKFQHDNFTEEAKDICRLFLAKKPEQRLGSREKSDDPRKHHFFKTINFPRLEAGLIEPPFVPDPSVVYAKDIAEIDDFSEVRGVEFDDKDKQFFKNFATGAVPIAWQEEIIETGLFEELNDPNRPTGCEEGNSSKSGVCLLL
# PRKAA1 (human) = PRKAA1 (human) (UniProt Q13131)
# STK38 (human) = STK38 (human) (UniProt Q15208)
# HIPK4 (human) = HIPK4 (human) (UniProt Q8NE63)
# NIM1 (human) = NIM1 (human) (UniProt Q8IY84)
# CDK19 (human), sequence (Q9BWU1 whole entry, looked up): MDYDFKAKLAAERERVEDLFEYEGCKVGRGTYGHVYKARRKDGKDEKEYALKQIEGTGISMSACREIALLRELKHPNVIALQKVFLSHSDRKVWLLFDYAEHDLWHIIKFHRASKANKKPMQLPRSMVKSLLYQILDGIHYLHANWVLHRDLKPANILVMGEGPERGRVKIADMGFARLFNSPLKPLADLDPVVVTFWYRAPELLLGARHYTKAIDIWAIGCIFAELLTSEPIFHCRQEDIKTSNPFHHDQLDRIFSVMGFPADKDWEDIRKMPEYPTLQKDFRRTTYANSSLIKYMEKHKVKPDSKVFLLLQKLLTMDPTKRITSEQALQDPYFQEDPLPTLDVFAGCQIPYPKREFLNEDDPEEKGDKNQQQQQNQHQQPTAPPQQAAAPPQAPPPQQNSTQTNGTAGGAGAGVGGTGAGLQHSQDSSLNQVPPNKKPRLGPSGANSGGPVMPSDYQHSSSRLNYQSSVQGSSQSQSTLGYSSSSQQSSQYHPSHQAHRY
smiles,measurement,setting,value
Nc1cc(C(F)(F)F)c(-c2cc(N3CCOCC3)nc(N3CCOCC3)n2)cn1,inhibition of binding,GRK4 (human),0%
same,inhibition of binding,RIOK3 (human),0%
same,inhibition of binding,CSNK1D (human),27%
same,inhibition of binding,RPS6KA2 KD2 (human),16%
same,inhibition of binding,IGF1R (human),0%
same,inhibition of binding,CDK19 (human),0%
same,inhibition of binding,PIP5K1A (human),0%
same,inhibition of binding,STK36 (human),0%
same,inhibition of binding,TLK1 (human),12%
same,inhibition of binding,BLK (human),0%
same,inhibition of binding,GSK3B (human),0%
same,inhibition of binding,[1],0%
same,inhibition of binding,BMX (human),14%
same,inhibition of binding,BMP2K (human),0%
same,inhibition of binding,[2],0%
same,inhibition of binding,FLT4 (human),3%
same,inhibition of binding,NTRK3 (human),0%
same,inhibition of binding,CAMK1G (human),0%
same,inhibition of binding,ALK (human),6%
same,inhibition of binding,AXL (human),7%
same,inhibition of binding,PAK4 (human),13%
same,inhibition of binding,OXSR1 (human),17%
same,inhibition of binding,AURKA (human),0%
same,inhibition of binding,TBK1 (human),0%
same,inhibition of binding,PTK6 (human),0%
same,inhibition of binding,MAP2K2 (human),0%
same,inhibition of binding,MAPK4 (human),0%
same,inhibition of binding,IRAK1 (human),12%
same,inhibition of binding,PRPF4B (human),4%
same,inhibition of binding,DAPK2 (human),13%
same,inhibition of binding,[3],6%
same,inhibition of binding,PAK7 (human),0%
same,inhibition of binding,PHKG1 (human),11%
same,inhibition of binding,EPHB1 (human),0%
same,inhibition of binding,RPS6KA1 KD2 (human),23%
same,inhibition of binding,GRK7 (human),3%
same,inhibition of binding,PRKAA1 (human),3%
same,inhibition of binding,STK38 (human),1%
same,inhibition of binding,HIPK4 (human),21%
same,inhibition of binding,NIM1 (human),0%
